US20240010590A1 (priority 2020, published 2024)

Tests used:
[1] = system: BVDV; experiment: Single-detergent treatment of IVIG-containing liquid, BVDV inactivation; assay type: cell-based, bovine viral diarrhea virus; conditions: single detergent 0.1%±0.01%, 17°C±1°C, within 10 minutes
[2] = system: BVDV; experiment: Single-detergent treatment of buffer containing HSA, BVDV inactivation; assay type: cell-based, bovine viral diarrhea virus; conditions: 14°C±1°C; for inactivation kinetics compared with Triton X-100: FIG. 4A, single detergent 0.09%-0.11%; for virus reduction factor (RF): single detergent 0.1%±0.01%, within 5 minutes
[3] = system: X-MuLV; experiment: S/D treatment of HSA-containing liquid, X-MuLV inactivation; assay type: cell-based, xenotropic murine leukemia virus; conditions: S/D mixture with PS80 and TnBP, 0.1% detergent
Experimental: FIG. 2: Virus inactivation efficiency of low concentrations of 4-tert-octylbenzyl alcohol polyethoxylate in S/D treatment of human serum albumin (HSA)-containing liquid at 1° C.±1° C. A three-component mixture was used to give final concentrations of 0.08%-0.1% 4-tert-octylbenzyl alcohol polyethoxylate, 0.02%-0.03% Polysorbate 80, 0.02%-0.03% TnBP (side-by-side comparison with same concentration of Triton X-100). Virus inactivation over time is indicated by the virus reduction factor (RF) for two runs with X-MuLV (A and B, respectively). Virus inactivation of S/D treatment using 4-tert-octylbenzyl alcohol polyethoxylate was compared to virus inactivation of S/D treatment using Triton X-100 (“TX-100”). Filled symbols show values with remaining infectivity, non-filled symbols show reduction factors below the limit of detection.
FIG. 3: Virus inactivation efficiency of low concentrations of 4-tert-octylbenzyl alcohol polyethoxylate in S/D treatment of HSA-containing liquid at 19° C.±1° C. A three-component mixture was used to give final concentrations of 0.08%-0.1% 4-tert-octylbenzyl alcohol polyethoxylate, 0.02%-0.03% Polysorbate 80, 0.02%-0.03% TnBP (side-by-side comparison with same concentration of Triton X-100). Virus inactivation over time is indicated by the virus reduction factor (RF) for two runs with X-MuLV (A and B, respectively). Virus inactivation of S/D treatment using 4-tert-octylbenzyl alcohol polyethoxylate was compared to virus inactivation of S/D treatment using Triton X-100 (“TX-100”). Filled symbols show values with remaining infectivity, non-filled symbols show reduction factors below the limit of detection.
The experiments were performed as described for Example 3 of WO 2019/086463. However, for the S/D treatment an S/D mixture comprising 4-tert-octylbenzyl alcohol polyethoxylate was tested and compared to an S/D mixture comprising Triton X-100. The composition of the S/D mixture comprising Triton X-100 was prepared as described in Example 3 of WO 2019/086463. […]

[4] = system: PRV; assay type: cell-based, pseudorabies virus; conditions: IVIG-containing liquid, 17°C±1°C
[5] = system: BVDV; experiment: Single-detergent treatment of pdFVIII-containing liquid, BVDV inactivation; assay type: cell-based, bovine viral diarrhea virus; conditions: single detergent 0.1%±0.01%, 23°C±1°C, within 5 minutes

| Substance | virus reduction factor (RF) [1] | inactivation kinetics compared with Triton X-100 [2] | virus reduction factor (RF) [2] | virus reduction factor (RF) ([3]; 1°C±1°C, within 10 minutes) | virus reduction factor (RF) ([3]; 19°C±1°C, within 10 minutes) | virus reduction factor (RF) ([3]; 19°C±1°C, within 30 min) | inactivation kinetics compared with Triton X-100 ([4]; FIG. 1A, S/D treatment, 0.04%-0.06% detergent) | virus reduction factor (RF) ([4]; S/D mixture with PS80 and TnBP, 0.05% w/w detergent, within 1-2 minutes) | virus reduction factor (RF) [5] |
| --- | --- | --- | --- | --- | --- | --- | --- | --- | --- |
| 4-tert-octylbenzyl alcohol polyethoxylate | around 5 | same inactivation kinetics as Triton X-100 | around 5 | over 2 | over 2 | around 4 | identical inactivation kinetics | around 4 | around 5 |
| 4-tert-octylcyclohexyl alcohol polyethoxylate [Triton X-100 reduced] | around 5 | same inactivation kinetics as Triton X-100 | around 5 |  |  |  |  |  | around 5 |
| n-hexadecyl alcohol polyethoxylate [Brij C10] |  |  | around 5 |  |  |  |  |  |  |
| 4-(1,1,3,3-tetramethylbutyl)phenol, ethoxylated [Triton X-100] | around 5 |  | around 5 |  |  |  |  |  | around 5 |
